# Measured values from patent US8592579B2, “Pyrrolotriazine kinase inhibitors” (Bristol-Myers Squibb Company, priority 2006, dated 2013).
# System: IGF1R-Sal tumors
# Experiment: IGF-1R Sal Tumor Model
# Format: in vivo, nude mice
# Details: Mus musculus, 96 h, 6.25 mpk, qd, oral, 4 consecutive days, read-out: IGF-1R Sal % TGI
# Description: A salivary gland adenocarcinoma that developed spontaneously in a transgenic mouse (MCI-19) was excised and cut into fragments of about 20 mg. Tumor fragments were implanted s.c. into the ventral thoracic region of a group of six female, athymic BALB/c nu/nu mice (Harley Sprague-Dawley, Indianapolis, Ind.), using a 13-gauge trocar. Once established, the salivary gland-derived tumor line was designated IGF 1R-Sal and was propagated as a tumor xenograft in nude mice. Tumors were passaged every 2 weeks, at which time the tumor reached f500 to 1,000 mm3 in size. […] Compounds were administered either on a bid schedule (oral doses 8 hours apart) or on a once a day schedule orally (qd) for 4 consecutive days. Tumors were measured at the start and end of treatment. Activity was measured as % tumor growth inhibition (% TGI). The % TGI was determined using the following formula (Ct−Tt)/(Ct−Co) where Ct is defined as the median tumor size of the control group at the end of treatment, Co is defined as the median tumor size of the control group at the start of treatment, and Tt is defined as the median tumor size of the treated group at the end of treatment.
row,Compound,inhibition in vivo at 6.25 mg/kg [%]
1,"CNC(=O)[C@@H]1CCCN1c1nc(Nc2cc(C3CC3)[nH]n2)c2cccn2n1 [Example 3, (S)-1-(4-(5-cyclopropyl-1H-pyrazol-3-ylamino)pyrrolo[1,2-f][1,2,4]triazin-2-yl)-N-methylpyrrolidine-2-carboxamide]",80

# Same assay, conditions: Mus musculus, 96 h, 25 mpk, bid, oral, 4 consecutive days, read-out: IGF-1R Sal % TGI
row,Compound,inhibition in vivo at 25 mg/kg [%]
1,"CC1(c2cc(Nc3nc(N4CCC[C@H]4C(=O)N[C@@H]4CCCNC4)nn4cccc34)n[nH]2)CC1 [Example 194, (S)-1-(4-(5-(1-methylcyclopropyl)-1H-pyrazol-3-ylamino)pyrrolo[1,2-f][1,2,4]triazin-2-yl)-N-((R)-piperidin-3-yl)pyrrolidine-2-carboxamide]",52
2,"O=C(Nc1nccs1)[C@@H]1C[C@@H](F)CN1c1nc(Nc2cc(C3CC3)[nH]n2)c2cccn2n1 [Example 198, (2S,4R)-1-(4-(5-cyclopropyl-1H-pyrazol-3-ylamino)pyrrolo[1,2-f][1,2,4]triazin-2-yl)-4-fluoro-N-(thiazol-2-yl)pyrrolidine-2-carboxamide]",124
3,"CC(C)n1cnc(Nc2nc(N3CCC[C@H]3C(=O)NC3CCCN(C)C3)nn3cccc23)c1 (stereo partly drawn) [Example 236, (S)-1-(4-(1-Isopropyl-1H-imidazol-4-ylamino)pyrrolo[1,2-f][1,2,4]triazin-2-yl)-N-((R)-1-methylpiperidin-3-yl)pyrrolidine-2-carboxamide]",113
4,C[C@@]1(C(=O)Nc2cccnc2)CCCN1c1nc(Nc2cc(C3CC3)[nH]n2)c2cccn2n1 [Example 68],76
5,Cc1cc(NC(=O)[C@]2(C)CCCN2c2nc(Nc3cc(C4CC4)[nH]n3)c3cccn3n2)n[nH]1 [Example 135],25
6,"O=C(Nc1ccc(F)nc1)[C@@H]1C[C@@H](O)CN1c1nc(Nc2cc(C3CC3)[nH]n2)c2cccn2n1 [Example 217, (2S,4R)-1-(4-(5-cyclopropyl-1H-pyrazol-3-ylamino)pyrrolo[1,2-f][1,2,4]triazin-2-yl)-N-(6-fluoropyridin-3-yl)-4-hydroxypyrrolidine-2-carboxamide]",0
7,Cc1cc(Nc2nc(N3CCC[C@@]3(C)C(=O)Nc3cccnc3)nn3cccc23)n[nH]1 [Example 85],76

# Same assay, conditions: Mus musculus, 96 h, 50 mpk, qd, oral, 4 consecutive days, read-out: IGF-1R Sal % TGI
row,Compound,inhibition in vivo at 50 mg/kg [%]
1,"CC(C)n1cnc(Nc2nc(N3C[C@@H](O)C[C@H]3C(=O)Nc3cnccn3)nn3cccc23)c1 [Example 245, (2S,4S)-4-hydroxy-1-(4-(1-isopropyl-1H-imidazol-4-ylamino)pyrrolo[L2-f][1,2,4]triazin-2-yl)-N-(pyrazin-2-yl)pyrrolidine-2-carboxamide]",112
2,O=C(Nc1cnccn1)[C@@H]1C[C@@H](F)CN1c1nc(Nc2cc(C3CC3)[nH]n2)c2cccn2n1 [Example 206],111
3,"C[C@@]1(C(=O)Nc2cnccn2)C[C@H](O)CN1c1nc(Nc2cc(C3CC3)[nH]n2)c2cccn2n1 [Example 227, (2S,4S)-1-(4-(5-cyclopropyl-1H-pyrazol-3-ylamino)pyrrolo[1,2-f][1,2,4]triazin-2-yl)-4-hydroxy-2-methyl-N-(pyrazin-2-yl)pyrrolidine-2-carboxamide]",115
